Results published in PubChem BioAssay (NCI).
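Each compound was tested at five concentrations against cells in 96-well plates for 48 hours. At the TGI there is no net growth.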

Experiments:
Test in all cases: inhibition of tumour cell growth, NCI panel, 48 h
786-0 renal = system: 786-0 renal
A498 renal = system: A498 renal
A549 NSCLC = system: A549 NSCLC
ACHN renal = system: ACHN renal
BT-549 breast = system: BT-549 breast
CAKI-1 renal = system: CAKI-1 renal
CCRF-CEM leukemia = system: CCRF-CEM leukemia
COLO 205 colon = system: COLO 205 colon
DU-145 prostate = system: DU-145 prostate
EKVX NSCLC = system: EKVX NSCLC
HCT-116 colon = system: HCT-116 colon
HCT-15 colon = system: HCT-15 colon
HL-60(TB) leukemia = system: HL-60(TB) leukemia
HOP-62 NSCLC = system: HOP-62 NSCLC
HOP-92 NSCLC = system: HOP-92 NSCLC
HS 578T breast = system: HS 578T breast
HT29 colon = system: HT29 colon
IGROV1 ovarian = system: IGROV1 ovarian
K-562 leukemia = system: K-562 leukemia
KM12 colon = system: KM12 colon
LOX IMVI melanoma = system: LOX IMVI melanoma
M14 melanoma = system: M14 melanoma
MALME-3M melanoma = system: MALME-3M melanoma
MDA-MB-231 breast = system: MDA-MB-231 breast
MDA-MB-435 = system: MDA-MB-435
MDA-N = system: MDA-N
MOLT-4 leukemia = system: MOLT-4 leukemia
NCI-H226 lung = system: NCI-H226 lung
NCI-H23 lung = system: NCI-H23 lung
NCI-H460 lung = system: NCI-H460 lung
NCI-H522 lung = system: NCI-H522 lung
NCI/ADR-RES ovarian = system: NCI/ADR-RES ovarian
OVCAR-3 ovarian = system: OVCAR-3 ovarian
OVCAR-4 ovarian = system: OVCAR-4 ovarian
OVCAR-5 ovarian = system: OVCAR-5 ovarian
OVCAR-8 ovarian = system: OVCAR-8 ovarian
PC-3 prostate = system: PC-3 prostate
RPMI-8226 leukemia = system: RPMI-8226 leukemia
RXF 393 renal = system: RXF 393 renal
SF-268 CNS = system: SF-268 CNS
SF-295 CNS = system: SF-295 CNS
SF-539 CNS = system: SF-539 CNS
SK-MEL-2 melanoma = system: SK-MEL-2 melanoma
SK-MEL-28 melanoma = system: SK-MEL-28 melanoma
SK-MEL-5 melanoma = system: SK-MEL-5 melanoma
SK-OV-3 ovarian = system: SK-OV-3 ovarian
SN12C renal = system: SN12C renal
SNB-19 CNS = system: SNB-19 CNS
SNB-75 CNS = system: SNB-75 CNS
SW-620 colon = system: SW-620 colon
T-47D breast = system: T-47D breast
TK-10 renal = system: TK-10 renal
U251 CNS = system: U251 CNS
UACC-257 melanoma = system: UACC-257 melanoma
UO-31 renal = system: UO-31 renal
HCC-2998 colon = system: HCC-2998 colon
MCF7 breast = system: MCF7 breast
SR leukemia = system: SR leukemia
UACC-62 melanoma = system: UACC-62 melanoma

`CN1C2CCC1CN(CCOC(c1ccc(F)cc1)c1ccc(F)cc1)C2` was tested, and the TGI (786-0 renal) was 40 µM, the TGI (A498 renal) was 86 µM and the TGI (A549 NSCLC) was > 100 µM. The TGI (ACHN renal) was > 100 µM, the TGI (BT-549 breast) was > 100 µM and the TGI (CAKI-1 renal) was > 100 µM. For the same molecule, the TGI (CCRF-CEM leukemia) was > 100 µM, the TGI (COLO 205 colon) was 33.8 µM and the TGI (DU-145 prostate) was > 100 µM. For the same molecule, the TGI (EKVX NSCLC) was > 100 µM, the TGI (HCT-116 colon) was 44.8 µM and the TGI (HCT-15 colon) was > 100 µM. The TGI (HL-60(TB) leukemia) was 31.3 µM, the TGI (HOP-62 NSCLC) was 59.3 µM and the TGI (HOP-92 NSCLC) was 93.9 µM. For the same molecule, the TGI (HS 578T breast) was > 100 µM, the TGI (HT29 colon) was 73.7 µM and the TGI (IGROV1 ovarian) was > 100 µM. For the same molecule, the TGI (K-562 leukemia) was 62.6 µM, the TGI (KM12 colon) was 49.5 µM and the TGI (LOX IMVI melanoma) was 39.1 µM. It also gave a TGI (M14 melanoma) of 38.8 µM, a TGI (MALME-3M melanoma) of 32.5 µM and a TGI (MDA-MB-231 breast) of 58.5 µM. For the same molecule, the TGI (MDA-MB-435) was 63.7 µM, the TGI (MDA-N) was > 100 µM and the TGI (MOLT-4 leukemia) was 83.7 µM. For the same molecule, the TGI (NCI-H226 lung) was > 100 µM, the TGI (NCI-H23 lung) was > 100 µM and the TGI (NCI-H460 lung) was 60.6 µM. For the same molecule, the TGI (NCI-H522 lung) was > 100 µM, the TGI (NCI/ADR-RES ovarian) was > 100 µM and the TGI (OVCAR-3 ovarian) was > 100 µM. The TGI (OVCAR-4 ovarian) was > 100 µM, the TGI (OVCAR-5 ovarian) was > 100 µM and the TGI (OVCAR-8 ovarian) was > 100 µM. The TGI (PC-3 prostate) was > 100 µM, the TGI (RPMI-8226 leukemia) was 55.9 µM and the TGI (RXF 393 renal) was 43 µM. The TGI (SF-268 CNS) was > 100 µM, the TGI (SF-295 CNS) was 39.1 µM and the TGI (SF-539 CNS) was 38 µM. The TGI (SK-MEL-2 melanoma) was 56.3 µM, the TGI (SK-MEL-28 melanoma) was 30.1 µM and the TGI (SK-MEL-5 melanoma) was 27.8 µM. The TGI (SK-OV-3 ovarian) was > 100 µM, the TGI (SN12C renal) was > 100 µM and the TGI (SNB-19 CNS) was > 100 µM. For the same molecule, the TGI (SNB-75 CNS) was > 100 µM, the TGI (SW-620 colon) was 83.8 µM and the TGI (T-47D breast) was 76.6 µM. For the same molecule, the TGI (TK-10 renal) was > 100 µM, the TGI (U251 CNS) was 78.9 µM and the TGI (UACC-257 melanoma) was 37.3 µM. The TGI (UO-31 renal) was > 100 µM.
`O=c1cc(-c2ccccc2)oc2cc(Oc3nnnn3-c3ccccc3)ccc12` was tested, and the TGI (786-0 renal) was > 100 µM, the TGI (A498 renal) was 79.6 µM and the TGI (A549 NSCLC) was > 100 µM. For the same molecule, the TGI (ACHN renal) was 13.9 µM, the TGI (BT-549 breast) was 52.1 µM and the TGI (CAKI-1 renal) was 20.4 µM. The TGI (CCRF-CEM leukemia) was > 100 µM, the TGI (COLO 205 colon) was > 100 µM and the TGI (DU-145 prostate) was 94.1 µM. The TGI (EKVX NSCLC) was > 100 µM, the TGI (HCC-2998 colon) was > 100 µM and the TGI (HCT-116 colon) was > 100 µM. The TGI (HCT-15 colon) was > 100 µM, the TGI (HL-60(TB) leukemia) was > 100 µM and the TGI (HOP-62 NSCLC) was > 100 µM. For the same molecule, the TGI (HOP-92 NSCLC) was 9.17 µM, the TGI (HS 578T breast) was 89.5 µM and the TGI (HT29 colon) was > 100 µM. For the same molecule, the TGI (IGROV1 ovarian) was > 100 µM, the TGI (K-562 leukemia) was > 100 µM and the TGI (KM12 colon) was > 100 µM. For the same molecule, the TGI (LOX IMVI melanoma) was > 100 µM, the TGI (M14 melanoma) was > 100 µM and the TGI (MALME-3M melanoma) was > 100 µM. For the same molecule, the TGI (MCF7 breast) was 37.8 µM, the TGI (MDA-MB-231 breast) was > 100 µM and the TGI (MDA-MB-435) was 46 µM. For the same molecule, the TGI (MDA-N) was > 100 µM, the TGI (MOLT-4 leukemia) was > 100 µM and the TGI (NCI-H226 lung) was > 100 µM. For the same molecule, the TGI (NCI-H23 lung) was > 100 µM, the TGI (NCI-H460 lung) was > 100 µM and the TGI (NCI-H522 lung) was > 100 µM. The TGI (OVCAR-3 ovarian) was > 100 µM, the TGI (OVCAR-4 ovarian) was 70.9 µM and the TGI (OVCAR-8 ovarian) was > 100 µM. The TGI (PC-3 prostate) was > 100 µM, the TGI (RPMI-8226 leukemia) was > 100 µM and the TGI (SF-268 CNS) was 52.2 µM. The TGI (SF-295 CNS) was > 100 µM, the TGI (SF-539 CNS) was 85.4 µM and the TGI (SK-MEL-2 melanoma) was 97.3 µM. For the same molecule, the TGI (SK-MEL-28 melanoma) was > 100 µM, the TGI (SK-MEL-5 melanoma) was 42.4 µM and the TGI (SK-OV-3 ovarian) was > 100 µM. The TGI (SN12C renal) was > 100 µM, the TGI (SNB-19 CNS) was > 100 µM and the TGI (SR leukemia) was > 100 µM. For the same molecule, the TGI (SW-620 colon) was > 100 µM, the TGI (T-47D breast) was 79.7 µM and the TGI (TK-10 renal) was > 100 µM. For the same molecule, the TGI (U251 CNS) was 41.4 µM, the TGI (UACC-257 melanoma) was 90.9 µM and the TGI (UACC-62 melanoma) was > 100 µM. The TGI (UO-31 renal) was 33.1 µM.
For `CN(C)c1ccc(C(=O)NCCCCCCC(=O)NO)cc1`, the TGI (786-0 renal) was > 30.4 µM, the TGI (A498 renal) was 3.07 µM and the TGI (A549 NSCLC) was 10.9 µM. For the same molecule, the TGI (ACHN renal) was 5.45 µM, the TGI (BT-549 breast) was > 28.3 µM and the TGI (CAKI-1 renal) was 2.81 µM. The TGI (CCRF-CEM leukemia) was > 100 µM, the TGI (COLO 205 colon) was 0.832 µM and the TGI (EKVX NSCLC) was > 100 µM. The TGI (HCC-2998 colon) was 1.48 µM, the TGI (HCT-116 colon) was 0.972 µM and the TGI (HCT-15 colon) was > 38.3 µM. For the same molecule, the TGI (HL-60(TB) leukemia) was > 63.8 µM, the TGI (HOP-62 NSCLC) was 98.8 µM and the TGI (HS 578T breast) was > 23.8 µM. The TGI (HT29 colon) was > 32.5 µM, the TGI (IGROV1 ovarian) was 2.69 µM and the TGI (K-562 leukemia) was > 100 µM. For the same molecule, the TGI (KM12 colon) was 35.4 µM, the TGI (LOX IMVI melanoma) was 1.51 µM and the TGI (M14 melanoma) was > 38 µM. The TGI (MALME-3M melanoma) was > 100 µM, the TGI (MDA-MB-435) was 3.62 µM and the TGI (MDA-N) was 0.908 µM. For the same molecule, the TGI (MOLT-4 leukemia) was > 100 µM, the TGI (NCI-H226 lung) was 17.8 µM and the TGI (NCI-H23 lung) was 3.66 µM. It also gave a TGI (NCI-H460 lung) of 5.21 µM, a TGI (NCI-H522 lung) of 0.739 µM and a TGI (NCI/ADR-RES ovarian) of 0.728 µM. For the same molecule, the TGI (OVCAR-3 ovarian) was 4.38 µM, the TGI (OVCAR-4 ovarian) was > 25.3 µM and the TGI (OVCAR-5 ovarian) was 1.49 µM. For the same molecule, the TGI (OVCAR-8 ovarian) was 2.46 µM, the TGI (RXF 393 renal) was 1.73 µM and the TGI (SF-268 CNS) was 6.26 µM. The TGI (SF-295 CNS) was 1.82 µM, the TGI (SF-539 CNS) was > 53 µM and the TGI (SK-MEL-2 melanoma) was 0.932 µM. It also gave a TGI (SK-MEL-28 melanoma) of 13.9 µM, a TGI (SK-MEL-5 melanoma) of 1.39 µM and a TGI (SK-OV-3 ovarian) of 1.54 µM. The TGI (SN12C renal) was 2.03 µM, the TGI (SNB-19 CNS) was > 100 µM and the TGI (SNB-75 CNS) was 2.2 µM. For the same molecule, the TGI (SR leukemia) was > 76 µM, the TGI (SW-620 colon) was > 21.5 µM and the TGI (T-47D breast) was 1.04 µM. The TGI (TK-10 renal) was 2.7 µM, the TGI (U251 CNS) was 3.64 µM and the TGI (UACC-257 melanoma) was 2.13 µM. It also gave a TGI (UACC-62 melanoma) of 1.37 µM and a TGI (UO-31 renal) of 5.2 µM.
